In ChEMBL document CHEMBL1201862, “PubChem BioAssay data set” (2004):
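Each compound was tested at five concentrations against cells in 96-well plates for 48 hours. Abbreviation: GI50, concentration required for 50% inhibition of growth.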 Activity calls are given as the source filed them. Rule as the data show it: active = GI50 up to about 1.1 µM and inactive = higher.

How the values were obtained:
Test in all cases: DTP human tumour cell line panel, 48 h
[1] = system: 786-0
[2] = system: A498
[3] = system: A549
[4] = system: ACHN
[5] = system: CAKI-1
[6] = system: CCRF-CEM
[7] = system: COLO 205
[8] = system: DLD-1
[9] = system: DMS-114
[10] = system: DMS-273
[11] = system: EKVX
[12] = system: HCC 2998
[13] = system: HCT-116
[14] = system: HCT-15
[15] = system: HL-60
[16] = system: HOP-18
[17] = system: HOP-62
[18] = system: HOP-92
[19] = system: HT-29
[20] = system: IGROV-1
[21] = system: K562
[22] = system: KM-20L2
[23] = system: KM12
[24] = system: LOX IMVI
[25] = system: LXFL 529
[26] = system: M14
[27] = system: M19-MEL
[28] = system: MCF7
[29] = system: MOLT-4
[30] = system: Malme-3M
[31] = system: NCI-H226
[32] = system: NCI-H23
[33] = system: NCI-H460
[34] = system: NCI-H522
[35] = system: NCI/ADR-RES
[36] = system: OVCAR-3
[37] = system: OVCAR-4
[38] = system: OVCAR-5
[39] = system: OVCAR-8
[40] = system: RPMI-8226
[41] = system: RXF 393
[42] = system: SF-268
[43] = system: SF-295
[44] = system: SF-539
[45] = system: SK-MEL-28
[46] = system: SK-MEL-2
[47] = system: SK-MEL-5
[48] = system: SK-OV-3
[49] = system: SN12C
[50] = system: SNB-19
[51] = system: SNB-75
[52] = system: SNB-78
[53] = system: SR
[54] = system: SW-620
[55] = system: TK-10
[56] = system: U-251
[57] = system: UACC-257
[58] = system: UACC-62
[59] = system: UO-31
[60] = system: XF498

For `O=C(O)/C=C/C(=O)N1C/C(=C\c2ccccc2)C(=O)/C(=C/c2ccccc2)C1`, the GI50 [1] was 3.3 µM (inactive), the GI50 [2] was 20.1 µM (inactive) and the GI50 [3] was 21.4 µM (inactive). For the same compound, the GI50 [4] was 8.13 µM (inactive), the GI50 [5] was 15.1 µM (inactive) and the GI50 [6] was 2.36 µM (inactive). For the same compound, the GI50 [7] was 10.2 µM (inactive), the GI50 [8] was 3.94 µM (inactive) and the GI50 [9] was 2.99 µM (inactive). For the same compound, the GI50 [10] was 8.53 µM (inactive), the GI50 [11] was 23.5 µM (inactive) and the GI50 [12] was 6.67 µM (inactive). For the same compound, the GI50 [13] was 1.82 µM (inactive), the GI50 [14] was 6.73 µM and the GI50 [15] was 7.96 µM (inactive). For the same compound, the GI50 [16] was 11.9 µM (inactive), the GI50 [17] was 23.4 µM (inactive) and the GI50 [18] was 19.9 µM (inactive). For the same compound, the GI50 [19] was 7.76 µM (inactive), the GI50 [20] was 16.7 µM (inactive) and the GI50 [21] was 2.37 µM (inactive). For the same compound, the GI50 [22] was 5.9 µM (inactive), the GI50 [23] was 2.55 µM (inactive) and the GI50 [24] was 3.13 µM (inactive). For the same compound, the GI50 [25] was 1.8 µM (inactive), the GI50 [26] was 3.4 µM (inactive) and the GI50 [27] was 3.21 µM (inactive). The GI50 [28] was 4.73 µM (inactive), the GI50 [29] was 2.81 µM (inactive) and the GI50 [30] was 4.72 µM (inactive). For the same compound, the GI50 [31] was 12.4 µM (inactive), the GI50 [32] was 9.71 µM (inactive) and the GI50 [33] was 14.1 µM (inactive). The GI50 [34] was 1.9 µM (inactive), the GI50 [35] was 8.65 µM (inactive) and the GI50 [36] was 7.26 µM (inactive). For the same compound, the GI50 [37] was 7.43 µM (inactive), the GI50 [38] was 17.9 µM (inactive) and the GI50 [39] was 2.7 µM (inactive). For the same compound, the GI50 [40] was 1.78 µM (inactive), the GI50 [41] was 5.05 µM (inactive) and the GI50 [42] was 6.35 µM (inactive). For the same compound, the GI50 [43] was 5.01 µM (inactive), the GI50 [44] was 10.8 µM (inactive) and the GI50 [45] was 6.49 µM (inactive). For the same compound, the GI50 [46] was 12.6 µM (inactive), the GI50 [47] was 8.95 µM (inactive) and the GI50 [48] was 21.3 µM (inactive). The GI50 [49] was 6.81 µM (inactive), the GI50 [50] was 11.3 µM (inactive) and the GI50 [51] was 9.84 µM (inactive). The GI50 [52] was 5.9 µM (inactive), the GI50 [53] was 3.72 µM (inactive) and the GI50 [54] was 2.32 µM (inactive). The GI50 [55] was 10.3 µM (inactive), the GI50 [56] was 1.87 µM (inactive) and the GI50 [57] was 7.18 µM (inactive). For the same compound, the GI50 [58] was 2.97 µM (inactive), the GI50 [59] was 18.2 µM (inactive) and the GI50 [60] was 7.18 µM (inactive).
`Cn1cnc([N+](=O)[O-])c1Sc1nc2ccccc2[nH]1` was tested, and the GI50 [1] was 41.1 µM (inactive), the GI50 [2] was 21.2 µM (inactive) and the GI50 [3] was 19.4 µM (inactive). The GI50 [4] was 22.8 µM (inactive), the GI50 [5] was 3.68 µM (inactive) and the GI50 [6] was 17.9 µM (inactive). The GI50 [7] was 10.4 µM (inactive), the GI50 [8] was 5.6 µM (inactive) and the GI50 [9] was 8.26 µM (inactive). The GI50 [10] was 1.91 µM (inactive), the GI50 [11] was 14.1 µM (inactive) and the GI50 [12] was 12.3 µM (inactive). The GI50 [13] was 14.8 µM (inactive), the GI50 [14] was 11.1 µM and the GI50 [15] was 9.29 µM (inactive). The GI50 [16] was 67.6 µM (inactive), the GI50 [17] was > 100 µM (inactive) and the GI50 [18] was 18.5 µM (inactive). For the same compound, the GI50 [19] was 27.7 µM (inactive), the GI50 [20] was 13.9 µM (inactive) and the GI50 [21] was 20.3 µM (inactive). The GI50 [22] was 16.4 µM (inactive), the GI50 [23] was 19.5 µM (inactive) and the GI50 [24] was 22.7 µM (inactive). The GI50 [25] was 6.67 µM (inactive), the GI50 [26] was 24.2 µM (inactive) and the GI50 [27] was 14.9 µM (inactive). The GI50 [29] was 6.87 µM (inactive), the GI50 [30] was 16.3 µM (inactive) and the GI50 [31] was 28.7 µM (inactive). For the same compound, the GI50 [32] was 19.1 µM (inactive), the GI50 [33] was 22.4 µM (inactive) and the GI50 [36] was 31.9 µM (inactive). The GI50 [37] was 33 µM (inactive), the GI50 [38] was 52.8 µM (inactive) and the GI50 [39] was 11.7 µM (inactive). The GI50 [40] was 15.5 µM (inactive), the GI50 [41] was 11.4 µM (inactive) and the GI50 [42] was 14.3 µM (inactive). For the same compound, the GI50 [43] was > 100 µM (inactive), the GI50 [44] was 14.2 µM (inactive) and the GI50 [45] was 13.1 µM (inactive). For the same compound, the GI50 [47] was 13.1 µM (inactive), the GI50 [48] was 21.7 µM (inactive) and the GI50 [49] was 14.7 µM (inactive). For the same compound, the GI50 [50] was > 10 µM (inactive), the GI50 [51] was 18.4 µM (inactive) and the GI50 [52] was 13.2 µM (inactive). The GI50 [53] was 10 µM (inactive), the GI50 [54] was > 10 µM (inactive) and the GI50 [55] was 19.3 µM (inactive). The GI50 [56] was 20 µM (inactive), the GI50 [57] was 15.1 µM (inactive) and the GI50 [59] was 19.9 µM (inactive). For the same compound, the GI50 [60] was 3.65 µM (inactive).
